We go through 22 molecules from US8071508B2, “Process for preparing paste-extruded sulfonamide compositions” (priority 2002, dated 2011).

Values after ≈ are worked out from the molar mass of the structure shown. A value given as a limit tells only on which side of the number the result lay.

The term pKa denotes the pH at which an ionisable group is half protonated. As a reminder, the solubility is the concentration that dissolves in the medium under given conditions. High values mean a readily soluble substance, low ones a poorly soluble substance.

Assay in one series: not given
The note with it: in water at ambient temperatures, typically about 20 to 25° C.; cited from earlier work.
For the molecule `COc1cc(OC)nc(NC(=O)NS(=O)(=O)N(C)S(C)(=O)=O)n1` [amidosulfuron, N-[[[[(4,6-dimethoxy-2-pyrimdinyl)amino]carbonyl]amino]-sulfonyl]-N-methylmethanesulfonamide], the pKa is given as 3.6.
As for `COCCOc1ccccc1S(=O)(=O)NC(=O)N=c1nc(OC)[nH]c(OC)n1` [cinosulfuron, N-[[(4,6-dimethoxy-1,3,5-triazin-2-yl)amino]carbonyl]-2-(2-methoxyethoxy)benzenesulfonamide], the pKa is 4.7.
Turning to `CCOc1nc(F)cc2nc(S(=O)(=O)Nc3c(Cl)cccc3C(=O)OC)nn12` [cloransulam-methyl, methyl 3-chloro-2-[[(5-ethoxy-7-fluoro[1,2,4]-triazolo[1,5-c]pyrimidin-2-yl)sulfonyl]amino]benzoate], the pKa was 4.8.
Regarding `CCOc1nc(NC)nc(NC(=O)NS(=O)(=O)c2ccccc2C(=O)OC)n1` [ethametsulfuron-methyl, methyl 2-[[[[[4-ethoxy-6-(methylamino)-1,3,5-triazin-2-yl]amino]carbonyl]amino]sulfonyl]benzoate], the pKa is reported as 4.6.
On to `COc1ncc(F)c2nc(S(=O)(=O)Nc3c(F)cccc3F)nn12` [florasulam, N-(2,6-difluorophenyl)-8-fluoro-5-methoxy[1,2,4]triazolo[1,5-c]pyrimidine-2-sulfonamide], for which the pKa is on record as 4.5.
`COC(=O)c1c(Cl)nn(C)c1S(=O)(=O)NC(=O)Nc1nc(OC)cc(OC)n1` [halosulfuron-methyl, methyl 3-chloro-5-[[[[(4,6-dimethoxy-2-pyrimidinyl)amino]carbonyl]amino]sulfonyl]-1-methyl-1H-pyrazole-4-carboxylate]: the pKa was 3.4.
Regarding `CCOC(=O)c1cnn(C)c1S(=O)(=O)NC(=O)Nc1nc(OC)cc(OC)n1` [pyrazosulfuron-ethyl, ethyl 5-[[[[(4,6-dimethoxy-2-pyrimidinyl)amino]carbonyl]amino]sulfonyl]-1-methyl-1H-pyrazole-4-carboxylate], the pKa is 3.7.
For `COc1nc(C)nc(NC(=O)NS(=O)(=O)c2ccccc2OCCCl)n1` [triasulfuron, 2-(2-chloroethoxy)-N-[[(4-methoxy-6-methyl-1,3,5-triazin-2-yl)amino]carbonyl]benzenesulfonamide], the pKa was 4.6.
In the case of `COc1cc(OC)nc(NC(=O)NS(=O)(=O)c2ncccc2OCC(F)(F)F)n1` [trifloxysulfuron, N-[[(4,6-dimethoxy-2-pyrimidinyl)amino]-carbonyl]-3-(2,2,2-trifluoroethoxy)-2-pyridinesulfonamide], the pKa is given as 4.8.
Turning to “N-[[[2-(cyclopropylcarbonyl)phenyl]amino]sulfonyl]-N^1-(4,6-dimethoxypyrimidin-2-yl)urea [cyclosulfamuron]”, the pKa is given as 5.0.
As for “methyl 2-[[[[[4,6-bis(trifluoromethoxy)-2-pyrimidinyl]amino]carbonyl]amino]sulfonyl]-benzoate [primisulfuron-methyl]”, the pKa was 3.5.

Another series is described as follows: physchem. The note with it: pH 7, aqueous buffer, thermodynamic from solid. How it is done: At least 1 times up to about 5 times the amount of sulfonamide needed for saturation is added to a mixing vessel containing stock buffer solution at the test temperature (e.g., 20° C.). The mixture is magnetically stirred in the dark while being maintained at the test temperature. Samples are periodically removed for analysis. The samples are centrifuged using a high speed, temperature-controlled centrifuge at the test temperature for about 20 minutes at ≧12000 G to remove suspended particles. An aliquot of each supernatant is taken for analysis.
The concentration of sulfonamide in the supernatant is determined by a high pressure liquid chromatography (HPLC) method suitable for the particular sulfonamide. Typically the HPLC method will use a reversed phase chromatography column and UV detection. […] Also, the pH of the supernatant is measured using a calibrated pH meter capable of resolving differences of 0.1 pH units or less to verify that the pH is 7. Samples are successively withdrawn from the mixing vessel and analyzed until three successive samples show little or no variation in concentration. The test is preferably replicated to ensure accuracy.
Molecule `COC(=O)c1ccccc1CS(=O)(=O)NC(=O)Nc1nc(OC)cc(OC)n1` [bensulfuron-methyl, methyl 2-[[[[[(4,6-dimethoxy-2-pyrimidinyl)amino]carbonyl]amino]-sulfonyl]methyl]benzoate] yielded a solubility below 1000 µg/mL.
Still for that read-out and setting: for `CCOC(=O)c1ccccc1S(=O)(=O)NC(=O)Nc1nc(Cl)cc(OC)n1` [chlorimuron-ethyl, ethyl 2-[[[[(4-chloro-6-methoxy-2-pyrimdinyl)amino]carbonyl]amino]sulfonyl]benzoate] the value was 1000 to 10000 µg/mL (≈ 2410 to 24100 µM).
`COC(=O)c1ccccc1S(=O)(=O)NC(=O)Nc1nc(C)nc(OC)n1` [metsulfuron-methyl, methyl 2-[[[[(4-methoxy-6-methyl-1,3,5-triazin-2-yl)amino]carbonyl]amino]sulfonyl]-benzoate] yielded a solubility of 1000 to 10000 µg/mL (≈ 2620 to 26200 µM).
Molecule `COC(=O)c1ccccc1S(=O)(=O)NC(=O)Nc1nc(C)cc(C)n1` [sulfometuron-methyl, methyl 2-[[[[(4,6-dimethyl-2-pyrimidinyl)amino]carbonyl]amino]sulfonyl]benzoate] yielded a solubility below 1000 µg/mL.
On the same count and under the same terms, under `COC(=O)c1ccccc1S(=O)(=O)NC(=O)N(C)c1nc(C)nc(OC)n1` [tribenuron-methyl, methyl 2-[[[[N-(4-methoxy-6-methyl-1,3,5-triazin-2-yl)-N-methylamino]carbonyl]-amino]sulfonyl]benzoate] stands 1000 to 10000 µg/mL (≈ 2530 to 25300 µM).

Assay in the next series: not given
The note with it: cited from earlier work.
Turning to `O=C([O-])[O-].[K+].[K+]` [K2CO3, potassium carbonate], the “First pKa (conjugate acid)” value is on record as 10.2 and the “Second pKa (conjugate acid)” value was 6.4.
In the case of `O=P([O-])([O-])OP(=O)([O-])[O-].[K+].[K+].[K+].[K+]` [K4P2O7, potassium pyrophosphate], the “First pKa (conjugate acid)” value is on record as 9.0, the “Second pKa (conjugate acid)” value was 7.0 and the “Third pKa (conjugate acid)” value is listed as 2.0.
Consider `O=C([O-])[O-].[Na+].[Na+]` [Na2CO3, sodium carbonate], for which the “First pKa (conjugate acid)” value is 10.2 and the “Second pKa (conjugate acid)” value is 6.4.
As for `O.O=C([O-])[O-].[Na+].[Na+]` [Na2CO3.H2O, sodium carbonate monohydrate], the “First pKa (conjugate acid)” value is on record as 10.2 and the “Second pKa (conjugate acid)” value is recorded as 6.4.
With `O=P([O-])([O-])OP(=O)([O-])[O-].[Na+].[Na+].[Na+].[Na+]` [Na4P2O7, sodium pyrophosphate], the “First pKa (conjugate acid)” value was 9.0, the “Second pKa (conjugate acid)” value was 7.0 and the “Third pKa (conjugate acid)” value is given as 2.0.
For the molecule “sodium phosphate dodecahydrate [Na3PO4.12H2O]”, the “Second pKa (conjugate acid)” value was 7.2 and the “Third pKa (conjugate acid)” value is recorded as 2.1.
